Laboratory results: patent US7981903B2, “2-[2-{phenylamino}-1H-pyrrolo[2,3-D]pyrimidin-4-yl)amino] benzamide derivatives as IGF-1R inhibitors for the treatment of cancer” (GlaxoSmithKline LLC, priority 2007, dated 2011)

Assays:
human IR (hIR) = target: T1, human IR (hIR) (Homo sapiens, UniProt P06213); assay: TR-FRET kinase assay of purified hIR; format: biochemical; conditions: activated hIR 0.5 nM, 10 μM ATP, values given as pIC50 category
T1 construct: containing amino acid residues 979-1382 of human IR; made in house; host or cells: Sf9 cells (baculovirus), same process as hIGF1R
T1 sequence (P06213 979-1382): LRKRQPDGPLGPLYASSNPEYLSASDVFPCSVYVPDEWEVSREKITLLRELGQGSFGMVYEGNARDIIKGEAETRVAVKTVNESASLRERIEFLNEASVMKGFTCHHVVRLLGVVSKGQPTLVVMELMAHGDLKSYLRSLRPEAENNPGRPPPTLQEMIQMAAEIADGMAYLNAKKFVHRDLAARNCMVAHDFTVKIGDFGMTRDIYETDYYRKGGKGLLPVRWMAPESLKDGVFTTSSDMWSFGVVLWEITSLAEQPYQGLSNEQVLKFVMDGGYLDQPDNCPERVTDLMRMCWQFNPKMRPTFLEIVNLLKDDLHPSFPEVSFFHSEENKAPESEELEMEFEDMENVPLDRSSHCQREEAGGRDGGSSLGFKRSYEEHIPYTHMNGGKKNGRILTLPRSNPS

human IGF1R (hIGF1R) = target: T2, human IGF1R (hIGF1R) (Homo sapiens, UniProt P08069); assay: TR-FRET kinase assay of purified hIGF1R; format: biochemical; conditions: activated hIGF1R 0.5 nM, 10 μM ATP, values given as pIC50 category, read-out: IGF-1R pIC50 (converted)
T2 construct: containing amino acid residues 957-1367 of human IGF1R; made in house; host or cells: Sf9 cells (baculovirus)
T2 sequence (P08069 957-1367): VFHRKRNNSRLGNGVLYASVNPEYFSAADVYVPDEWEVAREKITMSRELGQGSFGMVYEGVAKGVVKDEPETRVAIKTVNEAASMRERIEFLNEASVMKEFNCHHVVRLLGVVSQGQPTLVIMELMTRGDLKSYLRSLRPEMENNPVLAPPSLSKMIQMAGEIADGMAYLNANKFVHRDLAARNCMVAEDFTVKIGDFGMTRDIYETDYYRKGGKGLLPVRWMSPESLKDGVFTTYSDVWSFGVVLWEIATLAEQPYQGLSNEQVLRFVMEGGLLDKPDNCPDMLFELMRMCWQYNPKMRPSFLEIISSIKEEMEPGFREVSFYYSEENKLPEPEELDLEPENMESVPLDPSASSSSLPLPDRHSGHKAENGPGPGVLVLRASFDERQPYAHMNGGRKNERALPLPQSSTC

[1] = target: T3, NIH-3T3 cells overexpressing human IGF-1R (Homo sapiens, UniProt P08069); assay: IGF-1R cellular autophosphorylation (DELFIA); format: cell-based
T3 construct: expressed in transfected cells; host or cells: NIH-3T3 (mouse fibroblasts)
T3 sequence (P08069 31-1367): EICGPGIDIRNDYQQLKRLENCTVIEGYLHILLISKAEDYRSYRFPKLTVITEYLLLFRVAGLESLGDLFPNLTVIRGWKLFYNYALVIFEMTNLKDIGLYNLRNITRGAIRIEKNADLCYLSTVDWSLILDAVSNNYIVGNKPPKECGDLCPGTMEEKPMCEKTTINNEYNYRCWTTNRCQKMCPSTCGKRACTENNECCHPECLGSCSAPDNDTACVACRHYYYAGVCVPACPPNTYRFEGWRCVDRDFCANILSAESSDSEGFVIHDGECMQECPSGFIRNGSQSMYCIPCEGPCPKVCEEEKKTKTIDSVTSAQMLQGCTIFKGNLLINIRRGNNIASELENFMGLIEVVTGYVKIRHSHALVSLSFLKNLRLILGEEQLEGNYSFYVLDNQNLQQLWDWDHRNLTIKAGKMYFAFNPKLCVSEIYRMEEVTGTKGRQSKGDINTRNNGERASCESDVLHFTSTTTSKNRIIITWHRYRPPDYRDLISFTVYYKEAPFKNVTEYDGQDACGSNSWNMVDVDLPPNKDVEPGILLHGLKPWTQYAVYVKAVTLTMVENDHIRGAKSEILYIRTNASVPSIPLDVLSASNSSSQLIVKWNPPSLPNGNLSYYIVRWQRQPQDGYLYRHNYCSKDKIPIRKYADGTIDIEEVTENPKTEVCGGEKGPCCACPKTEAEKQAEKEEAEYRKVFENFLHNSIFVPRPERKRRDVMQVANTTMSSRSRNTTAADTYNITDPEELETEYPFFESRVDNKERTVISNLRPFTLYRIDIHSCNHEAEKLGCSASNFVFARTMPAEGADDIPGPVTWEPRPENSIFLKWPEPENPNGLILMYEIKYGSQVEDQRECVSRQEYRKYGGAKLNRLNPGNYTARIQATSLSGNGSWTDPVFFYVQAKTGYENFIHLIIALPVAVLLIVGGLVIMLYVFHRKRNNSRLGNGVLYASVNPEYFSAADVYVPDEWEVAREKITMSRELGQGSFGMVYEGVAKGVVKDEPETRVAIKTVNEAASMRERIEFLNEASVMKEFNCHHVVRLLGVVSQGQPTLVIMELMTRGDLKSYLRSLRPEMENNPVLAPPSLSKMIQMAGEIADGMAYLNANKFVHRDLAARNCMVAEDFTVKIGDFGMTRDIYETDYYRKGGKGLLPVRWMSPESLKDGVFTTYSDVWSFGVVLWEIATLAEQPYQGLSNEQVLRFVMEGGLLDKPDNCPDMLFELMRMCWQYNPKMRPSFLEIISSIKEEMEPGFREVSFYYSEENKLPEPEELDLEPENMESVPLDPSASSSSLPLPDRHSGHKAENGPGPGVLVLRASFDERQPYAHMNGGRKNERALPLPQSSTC
How it was run: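 Receptor autophosphorylation measured by DELFIA, capturing IGF-1R or IRβ and detecting with europium anti-pTyr, reported as percent of IGF-1- or insulin-stimulated signal. Compounds (30 uM to 1.5 nM) added 2 h before ligand, then 15 min stimulation (IGF-1 30 ng/ml or insulin 3 ug/ml).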

SMILES	IC50 (human IR (hIR)) [nM]	IC50 (human IGF1R (hIGF1R)) [nM]	IC50 [1] [nM]
COc1cc(N2CCN(C(C)C)CC2)ccc1Nc1nc(Nc2ccccc2C(N)=O)c2cc[nH]c2n1 [Example 7, 2-[(2-{[4-[4-(1-methylethyl)-1-piperazinyl]-2-(methyloxy)phenyl]amino}-1H-pyrrolo[2,3-d]pyrimidin-4-yl)amino]benzamide]	0.251 to 1	0.251 to 1	< 100
COc1cc(N2CCN(C(C)C)CC2)ccc1Nc1nc(Nc2cc(F)cc(F)c2C(N)=O)c2cc[nH]c2n1 [Example 89, 2,4-difluoro-6-[(2-{[4-[4-(1-methylethyl)-1-piperazinyl]-2-(methyloxy)phenyl]amino}-1H-pyrrolo[2,3-d]pyrimidin-4-yl)amino]benzamide]	0.251 to 1	0.251 to 1	< 100
CNC(=O)c1c(F)cccc1Nc1nc(Nc2cc3c(cc2OC)CCN3C(C)=O)nc2[nH]ccc12 [Example 135, 2-[(2-{[1-acetyl-5-(methyloxy)-2,3-dihydro-1H-indol-6-yl]amino}-1H-pyrrolo[2,3-d]pyrimidin-4-yl)amino]-6-fluoro-N-methylbenzamide]	5.01 to 158	5.01 to 200	> 500
COc1ccc(OC[C@@H](O)CN(C)C)cc1Nc1nc(Nc2cc(F)ccc2C(N)=O)c2cc[nH]c2n1 [Example 86, 2-[(2-{[5-{[(2S)-3-(dimethylamino)-2-hydroxypropyl]oxy}-2-(methyloxy)phenyl]amino}-1H-pyrrolo[2,3-d]pyrimidin-4-yl)amino]-4-fluorobenzamide]	0.251 to 1	0.251 to 1	100 to 500
COc1cc(N2CCC(N3CCOCC3)CC2)ccc1Nc1nc(Nc2cc(F)ccc2C(N)=O)c2cc[nH]c2n1 [Example 78, 4-fluoro-2-{[2-({2-(methyloxy)-4-[4-(4-morpholinyl)-1-piperidinyl]phenyl}amino)-1H-pyrrolo[2,3-d]pyrimidin-4-yl]amino}benzamide]	1.26 to 3.98	0.251 to 1	< 100
CCCN1CCC=C(c2ccc(Nc3nc(Nc4ccccc4C(N)=O)c4cc[nH]c4n3)c(OC)c2)C1 [Example 2, 2-[(2-{[2-(methyloxy)-4-(1-propyl-1,2,5,6-tetrahydro-3-pyridinyl)phenyl]amino}-1H-pyrrolo[2,3-d]pyrimidin-4-yl)amino]benzamide]	0.251 to 1	0.251 to 1	100 to 500
COc1cc(C2CCN(C(C)C)CC2)ccc1Nc1nc(Nc2ccc(F)cc2C(N)=O)c2cc[nH]c2n1 [Example 58, 5-fluoro-2-[(2-{[4-[1-(1-methylethyl)-4-piperidinyl]-2-(methyloxy)phenyl]amino}-1H-pyrrolo[2,3-d]pyrimidin-4-yl)amino]benzamide]	0.251 to 1	0.251 to 1	< 100
COc1cc2c(cc1Nc1nc(Nc3cccc(F)c3C(N)=O)c3cc[nH]c3n1)CN(C)CC2 [Example 121, 2-fluoro-6-[(2-{[2-methyl-6-(methyloxy)-1,2,3,4-tetrahydro-7-isoquinolinyl]amino}-1H-pyrrolo[2,3-d]pyrimidin-4-yl)amino]benzamide]	1.26 to 3.98	5.01 to 200	100 to 500
CNC(=O)c1cc2ccccc2cc1Nc1nc(Nc2cc3c(cc2OC)CCN3C(=O)CN(C)C)nc2[nH]ccc12 [Example 125, 3-[(2-{[1-(N,N-dimethylglycyl)-5-(methyloxy)-2,3-dihydro-1H-indol-6-yl]amino}-1H-pyrrolo[2,3-d]pyrimidin-4-yl)amino]-N-methyl-2-naphthalenecarboxamide]	0.251 to 1	0.251 to 1	100 to 500
CCCN(C)CC(=O)N1CCc2cc(OC)c(Nc3nc(Nc4cccc(F)c4C(N)=O)c4cc[nH]c4n3)cc21 [Example 168, 2-fluoro-6-[(2-{[5-(methyloxy)-1-(N-methyl-N-propylglycyl)-2,3-dihydro-1H-indol-6-yl]amino}-1H-pyrrolo[2,3-d]pyrimidin-4-yl)amino]benzamide]	0.251 to 1	0.251 to 1	< 100
COc1cc2c(cc1Nc1nc(Nc3cccc(F)c3C(N)=O)c3cc[nH]c3n1)NCC2 [Example 140, 2-fluoro-6-[(2-{[5-(methyloxy)-2,3-dihydro-1H-indol-6-yl]amino}-1H-pyrrolo[2,3-d]pyrimidin-4-yl)amino]benzamide]	5.01 to 158	5.01 to 200	> 500

Results, then the compound that gave them:

IC50 (human IR (hIR)) [nM]	IC50 (human IGF1R (hIGF1R)) [nM]	IC50 [1] [nM]	SMILES
1.26 to 3.98	5.01 to 200	> 500	COc1cc2c(cc1Nc1nc(Nc3cccc(F)c3C(N)=O)c3cc[nH]c3n1)CN(CCCN(C)C)CC2 [Example 232, 2-[(2-{[2-[3-(dimethylamino)propyl]-6-(methyloxy)-1,2,3,4-tetrahydro-7-isoquinolinyl]amino}-1H-pyrrolo[2,3-d]pyrimidin-4-yl)amino]-6-fluorobenzamide]
5.01 to 158	5.01 to 200	> 500	COc1cc2c(cc1Nc1nc(Nc3cccc(F)c3C(N)=O)c3cc[nH]c3n1)CN(C(=O)CCN1CCN(C(C)C)CC1)CC2 [Example 229, 2-fluoro-6-[(2-{[2-{3-[4-(1-methylethyl)-1-piperazinyl]propanoyl}-6-(methyloxy)-1,2,3,4-tetrahydro-7-isoquinolinyl]amino}-1H-pyrrolo[2,3-d]pyrimidin-4-yl)amino]benzamide]
0.251 to 1	0.251 to 1	100 to 500	CNC(=O)c1c(F)cccc1Nc1nc(Nc2cc3c(cc2OC)CCN3C(=O)CN(C)C)nc2[nH]cc(C)c12 [Example 258, 2-[(2-{[1-(N,N-dimethylglycyl)-5-(methyloxy)-2,3-dihydro-1H-indol-6-yl]amino}-5-methyl-1H-pyrrolo[2,3-d]pyrimidin-4-yl)amino]-6-fluoro-N-methylbenzamide]
5.01 to 158	5.01 to 200	100 to 500	COc1cc2c(cc1Nc1nc(Nc3cccc(F)c3C(N)=O)c3cc[nH]c3n1)CN(C(=O)CCN1CCOCC1)CC2 [Example 231, 2-fluoro-6-{[2-({6-(methyloxy)-2-[3-(4-morpholinyl)propanoyl]-1,2,3,4-tetrahydro-7-isoquinolinyl}amino)-1H-pyrrolo[2,3-d]pyrimidin-4-yl]amino}benzamide]
0.251 to 1	0.251 to 1	< 100	COc1cc2c(cc1Nc1nc(Nc3cc(F)cc(F)c3C(N)=O)c3cc[nH]c3n1)N(C(=O)CN(C)C)CCC2 [Example 178, 2-[(2-{[1-(N,N-dimethylglycyl)-6-(methyloxy)-1,2,3,4-tetrahydro-7-quinolinyl]amino}-1H-pyrrolo[2,3-d]pyrimidin-4-yl)amino]-4,6-difluorobenzamide]
0.251 to 1	0.251 to 1	< 100	COc1cc2c(cc1Nc1nc(Nc3cccc(F)c3C(N)=O)c3cc[nH]c3n1)N(C(=O)CN(C)C)CCC2 [Example 210, 2-[(2-{[1-(N,N-dimethylglycyl)-6-(methyloxy)-1,2,3,4-tetrahydro-7-quinolinyl]amino}-1H-pyrrolo[2,3-d]pyrimidin-4-yl)amino]-6-fluorobenzamide]
0.251 to 1	0.251 to 1	< 100	COc1cc2c(cc1Nc1nc(Nc3cc(Cl)cc(F)c3C(N)=O)c3cc[nH]c3n1)N(C(=O)CN1CCCC1)CC2 [Example 175, 4-chloro-2-fluoro-6-[(2-{[5-(methyloxy)-1-(1-pyrrolidinylacetyl)-2,3-dihydro-1H-indol-6-yl]amino}-1H-pyrrolo[2,3-d]pyrimidin-4-yl)amino]benzamide]
5.01 to 158	5.01 to 200	100 to 500	COc1cc(N2CCCN(C(C)C)CC2)ccc1Nc1nc(Nc2cccc(F)c2C(N)=O)c2cc[nH]c2n1 [Example 208, 2-fluoro-6-[(2-{[4-[4-(1-methylethyl)hexahydro-1H-1,4-diazepin-1-yl]-2-(methyloxy)phenyl]amino}-1H-pyrrolo[2,3-d]pyrimidin-4-yl)amino]benzamide]
1.26 to 3.98	5.01 to 200	> 500	COc1cc(N2CCN(S(C)(=O)=O)CC2)ccc1Nc1nc(Nc2cccc(F)c2C(N)=O)c2cc[nH]c2n1 [Example 204, 2-fluoro-6-{[2-({2-(methyloxy)-4-[4-(methylsulfonyl)-1-piperazinyl]phenyl}amino)-1H-pyrrolo[2,3-d]pyrimidin-4-yl]amino}benzamide]
0.251 to 1	0.251 to 1	< 100	CNC(=O)c1c(F)cc(F)cc1Nc1nc(Nc2cc3c(cc2OC)CCCN3C(=O)CN(C)C)nc2[nH]ccc12 [Example 179, 2-[(2-{[1-(N,N-dimethylglycyl)-6-(methyloxy)-1,2,3,4-tetrahydro-7-quinolinyl]amino}-1H-pyrrolo[2,3-d]pyrimidin-4-yl)amino]-4,6-difluoro-N-methylbenzamide]
5.01 to 158	5.01 to 200	100 to 500	CNC(=O)c1c(F)cccc1Nc1nc(Nc2cc(N(C)C(=O)CN(C)C)ccc2OC)nc2[nH]ccc12 [Example 242, 2-[(2-{[5-[(N,N-dimethylglycyl)(methyl)amino]-2-(methyloxy)phenyl]amino}-1H-pyrrolo[2,3-d]pyrimidin-4-yl)amino]-6-fluoro-N-methylbenzamide]
1.26 to 3.98	5.01 to 200	> 500	CCC(C)N1CCc2cc(OC)c(Nc3nc(Nc4cccc(F)c4C(=O)NC)c4cc[nH]c4n3)cc2C1 (stereo not drawn) [Example 238, 2-fluoro-N-methyl-6-[(2-{[6-(methyloxy)-2-(1-methylpropyl)-1,2,3,4-tetrahydro-7-isoquinolinyl]amino}-1H-pyrrolo[2,3-d]pyrimidin-4-yl)amino]benzamide]
